# Patent US20260097017A1, “TASIPIMIDINE AND CYP2D6 INHIBITOR COMBINATION TREATMENT” (ORION CORPORATION, priority 2022, published 2026)
# Read-outs that look alike come from different tables or passages of the source.
# T1: CYP1A1 (Homo sapiens, UniProt P04798)
# T1 construct: purchased; host or cells: baculovirus-transfected insect cells
# T1 sequence (P04798 1-512): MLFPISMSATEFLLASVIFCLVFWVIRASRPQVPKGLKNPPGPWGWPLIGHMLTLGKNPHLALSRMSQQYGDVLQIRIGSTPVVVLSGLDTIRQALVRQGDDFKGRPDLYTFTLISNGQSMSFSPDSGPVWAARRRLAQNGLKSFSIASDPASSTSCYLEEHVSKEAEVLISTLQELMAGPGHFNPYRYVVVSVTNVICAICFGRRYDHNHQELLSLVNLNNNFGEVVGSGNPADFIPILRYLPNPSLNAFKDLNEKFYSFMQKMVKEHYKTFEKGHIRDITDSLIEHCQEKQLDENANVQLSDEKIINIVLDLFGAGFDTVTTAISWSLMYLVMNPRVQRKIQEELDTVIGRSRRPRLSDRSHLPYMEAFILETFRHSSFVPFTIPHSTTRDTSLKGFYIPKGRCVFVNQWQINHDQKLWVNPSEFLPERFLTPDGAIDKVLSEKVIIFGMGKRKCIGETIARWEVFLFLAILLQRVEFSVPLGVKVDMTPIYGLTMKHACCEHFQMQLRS
# T2: CYP1A2 (Homo sapiens, UniProt P05177)
# T2 construct: purchased; host or cells: baculovirus-transfected insect cells
# T2 sequence (P05177 1-516): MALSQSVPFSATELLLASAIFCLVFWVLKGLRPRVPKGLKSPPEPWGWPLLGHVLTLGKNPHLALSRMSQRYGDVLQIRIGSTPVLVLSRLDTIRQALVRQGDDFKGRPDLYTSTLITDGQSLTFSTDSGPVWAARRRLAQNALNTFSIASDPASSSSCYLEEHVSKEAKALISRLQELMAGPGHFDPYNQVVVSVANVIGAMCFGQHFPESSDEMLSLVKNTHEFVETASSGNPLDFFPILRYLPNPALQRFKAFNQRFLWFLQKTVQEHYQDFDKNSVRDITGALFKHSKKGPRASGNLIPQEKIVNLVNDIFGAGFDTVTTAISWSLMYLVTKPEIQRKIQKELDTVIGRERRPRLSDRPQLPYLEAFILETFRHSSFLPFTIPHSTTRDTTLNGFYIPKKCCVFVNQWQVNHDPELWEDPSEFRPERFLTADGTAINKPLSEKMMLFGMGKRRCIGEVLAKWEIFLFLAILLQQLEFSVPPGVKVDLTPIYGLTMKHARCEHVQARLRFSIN
# B1: rhCYP2D6 (Homo sapiens) (protein)
# chain: MGLEALVPLAVIVAIFLLLVDLMHRRQRWAARYPPGPLPLPGLGNLLHVDFQNTPYCFDQLRRRFGDVFSLQLAWTPVVVLNGLAAVREALVTHGEDTADRPPVPITQILGFGPRSQGVFLARYGPAWREQRRFSVSTLRNLGLGKKSLEQWVTEEAACLCAAFANHSGRPFRPNGLLDKAVSNVIASLTCGRRFEYDDPRFLRLLDLAQEGLKEESGFLREVLNAVPVLLHIPALAGKVLRFQKAFLTQLDELLTEHRMTWDPAQPPRDLTEAFLAEMEKAKGNPESSFNDENLRIVVADLFSAGMVTTSTTLAWGLLLMILHPDVQRRVQQEIDDVIGQVRRPEMGDQAHMPYTTAVIHEVQRFGDIVPLGVTHMTSRDIEVQGFRIPKGTTLITNLSSVLKDEAVWEKPFRFHPEHFLDAQGHFVKPEAFLPFSAGRRACLGEPLARMELFLFFTSLLQHFSFSVPTGQPRPSHHGVFAFLVSPSPYELCAVPR
# notes: purchased; host or cells: baculovirus-transfected insect cells
# B2: CYP2D6 (Homo sapiens) (protein)
# chain: B1 chain
# Experiments:
# [1] = background statement; cited from earlier work
# [2] = dogs, triggered by noise or owner departure; cited from earlier work
# [3] = First-in-man single-dose escalation study, plasma PK; type: in vivo; settings: both sexes, human, po, mean
# Protocol: The first-in-man study was a randomized, double-blind, placebo-controlled, single-dose escalation study with healthy female and male subjects aged 18-44 years. The subjects were allocated to cohorts of 8 subjects of which 6 received active treatment and 2 received placebo. Each subject received either 1 dose of tasipimidine oral solution or 1 dose of placebo oral solution during the study. The studied doses of tasipimidine were 10, 25, 50, 100, and 150 μg as oral solution.
# (§1) The subjects were genotyped for CYP2D6 on screening. The translation of CYP2D6 genotype to CYP2D6 phenotype was done according to the national consensus published by the Dutch Pharmacogenetics Working Group from KNMP (https://www.knmp.nl/index.php/media/113). The subjects with CYP2D6 poor metabolizer genotype were excluded from the study. The translation of CYP2D6 genotype to activity score was done according to the CYP2D6 Allele Functionality Table of PharmGKB (https://www.pharmgkb.org/page/cyp2d6RefMaterials).
# Frequent blood samples were taken through an intravenous cannula for the assessment of the concentration of tasipimidine and its metabolite 1 in plasma. The sampling times were before (0 h) and 15 min, 30 min, 45 min, 1, 1.5, 2, 3, 4, 5, 6, 8, 10, 12, 16, and 24 hours after the study treatment administration. The PK parameters were calculated from the plasma concentration-time data by noncompartmental method using the commercial Phoenix WinNonlin software version 8.3.
# [4] = Blood to plasma ratio and fraction unbound in plasma (PBPK input parameters); type: in vitro ADME; settings: human, input parameter of the PBPK model
# From the text: (§2) A physiologically based pharmacokinetic (PBPK) model was used to simulate the plasma exposure of tasipimidine in fasted healthy 30 years old males of 70 kg with different CYP2D6 phenotypes. Simulations were produced with the commercial GastroPlus® 9.8.2 software.
# CYP2D6 [5] = biological target: T3, CYP2D6 (Homo sapiens, UniProt P10635); assay: Incubation with rhCYP2D6 Supersomes: intrinsic clearance and enzyme kinetics; type: in vitro ADME; set-up: purchased; host or cells: baculovirus-transfected insect cells
# Protocol: (§3) The objective of these studies was to identify enzymes involved in the metabolism of tasipimidine in human. The test substance tasipimidine and the reference compounds for main tasipimidine metabolites 1-(4,5-dihydro-1H-imidazol-2-yl) isochroman-5-ol (metabolite 1), 2-(5-methoxyisochroman-1-yl)-1H-imidazole (metabolite 2), and 1-(1H-imidazol-2-yl) isochroman-5-ol (metabolite 3) were supplied by Orion Pharma. To further support the findings of recombinant enzyme incubations tasipimidine was incubated with human hepatocytes with two enzyme inhibitors, i.e. 1-aminobenzotriazole (ABT, non-selective CYP inhibitor), and quinidine (CYP2D6 inhibitor).
# (§4) Moreover, enzyme kinetics of tasipimidine metabolism was studied in rhCYP2D6.
# (§5) Enzyme kinetics of tasipidimine metabolism by rhCYP2D6 was studied by incubating the test compound at 0.16, 0.41, 1, 2.6, 6.4, 16, 40 and 100 μM concentrations containing 10 pmol/ml of the CYP enzyme for 0, 5, 10, 20, and 30 min. Enzyme kinetics was estimated from CLint values measured for the test compound at different concentrations while metabolite characterisation was not performed.
# (§6) The analysis for disappearance of tasipimidine and the identification of the formed metabolites were carried out by using a high-resolution liquid chromatographic-mass spectrometer supported by accurate masses (UPLC-HRMS). […]
# [6] = Caco-2 permeability (PBPK input parameter); type: in vitro ADME; settings: human, input parameter of the PBPK model
# From the text: as §2
# [7] = Renal clearance (PBPK input parameter); settings: human, in vivo; input parameter of the PBPK model
# From the text: as §2
# [8] = Paroxetine co-treatment crossover PK study in healthy subjects; type: in vivo, human; settings: 10 μg oral, mean, n = 5; for AUC(0-inf) / Cmax / half-life: human, plasma; for half-life: read-out: t½ (converted)
# Protocol: Effect of co-treatment with a strong CYP2D6 inhibitor paroxetine on the PK of tasipimidine was studied. The study was an open label, crossover study with 5 healthy female and/or male subjects aged 26-51 years. The study started with a 8 days long once daily treatment of paroxetine 20 mg tablet. On the last day of paroxetine treatment, a single 10 μg dose of tasipimidine as oral solution was administered 1 h after the paroxetine intake after an overnight fast.
# as §1
# Frequent blood samples were taken through an intravenous cannula for the assessment of the concentration of tasipimidine and its metabolite 1 in plasma. The sampling times were before (0 h) and 20 min, 40 min, 1, 1.5, 2, 2.5, 3, 3.5, 4, 5, 6, 8, 12, 24, 36, and 48 hours after the study treatment administration. The PK parameters were calculated from the plasma concentration-time data by noncompartmental method using the commercial Phoenix WinNonlin software version 8.3.
# CYP1A1 = biological target: T1, CYP1A1; assay: Recombinant human CYP incubations (enzyme identification); type: in vitro ADME
# Protocol: as §3
# (§7) The analysis for disappearance of tasipimidine and the identification of the formed metabolites were carried out by using a high-resolution liquid chromatographic-mass spectrometer supported by accurate masses (UPLC-HRMS). Firstly, metabolic stability of tasipimidine in different in vitro matrices was determined by monitoring the disappearance of the parent compound as a function of time. Moreover, structures of the formed metabolites were characterized from their respective product ion spectra. The synthetized reference compounds of the metabolites were used to confirm the identification of those specific metabolites.
# CYP1A2 = biological target: T2, CYP1A2; assay: as above; type: in vitro ADME
# Protocol: as §3, §7
# CYP2C19 = biological target: T4, CYP2C19 (Homo sapiens, UniProt P33261); assay: as above; type: in vitro ADME
# T4 construct: purchased; host or cells: baculovirus-transfected insect cells
# T4 sequence (P33261 whole entry): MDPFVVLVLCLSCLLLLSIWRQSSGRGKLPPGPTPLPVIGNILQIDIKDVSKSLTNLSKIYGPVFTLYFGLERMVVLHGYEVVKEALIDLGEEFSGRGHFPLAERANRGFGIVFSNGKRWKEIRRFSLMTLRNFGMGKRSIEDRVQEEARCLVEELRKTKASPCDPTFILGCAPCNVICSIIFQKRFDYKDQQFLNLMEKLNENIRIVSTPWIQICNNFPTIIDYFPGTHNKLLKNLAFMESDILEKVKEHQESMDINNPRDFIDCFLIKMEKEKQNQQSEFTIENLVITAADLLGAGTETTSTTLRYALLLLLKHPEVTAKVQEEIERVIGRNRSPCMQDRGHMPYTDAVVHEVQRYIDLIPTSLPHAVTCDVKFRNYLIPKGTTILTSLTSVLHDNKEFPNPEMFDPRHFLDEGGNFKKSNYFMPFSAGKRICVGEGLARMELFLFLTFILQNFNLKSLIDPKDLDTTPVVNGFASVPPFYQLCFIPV
# Protocol: as §3, §7
# [9] = Physicochemical input parameters of the PBPK model; settings: input parameter of the PBPK model
# From the text: as §2
# CYP2D6 [10] = biological target: T3, CYP2D6; assay: CYP2D6 kinetic parameters (PBPK input parameters); type: in vitro ADME; settings: input parameter of the PBPK model
# From the text: as §2
# [11] = substrate: COc1cccc2c1CCOC2C1=NCCN1; assay: Incubation with rhCYP2D6 Supersomes: intrinsic clearance and enzyme kinetics; type: in vitro ADME, human; settings: other: rhCYP2D6, 0.16-100 μM, 10 pmol/ml CYP
# Protocol: as §3, §4, §5, §6
# [12] = substrate: COc1cccc2c1CCOC2C1=NCCN1; assay: CYP2D6 kinetic parameters (PBPK input parameters); type: in vitro ADME; settings: other: input parameter of the PBPK model
# From the text: as §2
# [13] = with paroxetine 20 mg once daily for 8 days
molecule,measurement,setting,value
Clc1cccc(Cl)c1N=C1NCCN1 [clonidine],elimination half-life (t1/2),[1],14 h
"COc1cccc2c1CCOC2C1=NCCN1 (stereo not drawn) [tasipimidine, 2-(5-methoxyisochroman-1-yl)-4,5-dihydro-1H-imidazole]",relief of situational anxiety and fear,[2],effective in relieving situational anxiety and fear
same,AUC(0-inf),"[3]; 10 ug, 10 μg single oral dose, corrected by CYP2D6 genotype based activity score, n = 6, read-out: AUCinf * AS",0.09 ng·h/mL
same,AUC(0-inf),"[3]; 10 ug, 10 μg single oral solution dose, n = 6, healthy subjects, read-out: AUCinf",0.052 ng·h/mL
same,AUC(0-inf),"[3]; 25 ug, 25 μg single oral dose, corrected by CYP2D6 genotype based activity score, n = 6, read-out: AUCinf * AS",0.254 ng·h/mL
same,AUC(0-inf),"[3]; 25 ug, 25 μg single oral solution dose, n = 6, healthy subjects, read-out: AUCinf",0.186 ng·h/mL
same,AUC(0-inf),"[3]; 50 ug, 50 μg single oral dose, corrected by CYP2D6 genotype based activity score, n = 6, read-out: AUCinf * AS",0.475 ng·h/mL
same,AUC(0-inf),"[3]; 50 ug, 50 μg single oral solution dose, n = 6, healthy subjects, read-out: AUCinf",0.36 ng·h/mL
same,AUC(0-inf),"[3]; 100 ug, 100 μg single oral dose, corrected by CYP2D6 genotype based activity score, n = 6, read-out: AUCinf * AS",1.03 ng·h/mL
same,AUC(0-inf),"[3]; 100 ug, 100 μg single oral solution dose, n = 6, healthy subjects, read-out: AUCinf",1.03 ng·h/mL
same,AUC(0-inf),"[3]; 150 ug, 150 μg single oral dose, corrected by CYP2D6 genotype based activity score, n = 6, read-out: AUCinf * AS",2.03 ng·h/mL
same,AUC(0-inf),"[3]; 150 ug, 150 μg single oral solution dose, n = 6, healthy subjects, read-out: AUCinf",1.74 ng·h/mL
same,blood plasma ratio,[4]; blood and plasma,1.13
same,fraction unbound,[4]; plasma,0.86
same,contribution of enzyme to tasipimidine metabolism,"CYP2D6 [5]; CYP2D6, human in vitro systems",major enzyme
same,intrinsic clearance (CLint),CYP2D6 [5]; tasipimidine 1 μM in rhCYP2D6,1.75 μl/min/pmol CYP
same,Papp,[6],15.4 ×10⁻⁶ cm/s
same,CL renal,[7],105 mL/min
same,AUCinf ratio with/without paroxetine,[8],3.1
same,Cmax ratio with/without paroxetine,[8],1.9
same,t½ ratio with/without paroxetine,[8],1.7
same,AUC(0-inf),"[8]; 10 ug, without paroxetine",0.106 ng·h/mL
same,Cmax,"[8]; 10 ug, without paroxetine",0.026 ng/mL
same,half-life,"[8]; 10 ug, without paroxetine",2.6 h
same,AUC(0-inf),[8]; [13],0.281 ng·h/mL
same,Cmax,[8]; [13],0.047 ng/mL
same,half-life,[8]; [13],4.3 h
same,contribution of enzyme to tasipimidine metabolism,CYP1A1,minor contributors
same,contribution of enzyme to tasipimidine metabolism,CYP1A2,minor contributors
same,contribution of enzyme to tasipimidine metabolism,CYP2C19,minor contributors
same,logP,[9],1.66
same,pKa,[9],9.24
same,Vmax for CYP2D6,CYP2D6 [10],0.000043 mg/s
B1,Km,[11],0.53 µM
same,kcat,[11],3.1 pmol/min/pmol CYP
B2,Km,[12],0.106 mg/L
